In patent US8063210B2, “Process and intermediate” (AstraZeneca AB, priority 2006, dated 2011):

Assays:
[1] = system: human colorectal (SW620, HCT116, Colo205) and lung (A549, Calu-6) tumour xenografts; assay: tumour growth inhibition in human tumour xenografts; format: in vivo; conditions: panel of human colorectal (SW620, HCT116, Colo205) and lung (A549, Calu-6) tumour xenografts; with statistical significance
[2] = pro-drug conversion to the active moiety in human plasma; format: in vitro ADME

conversion of pro-drug to active moiety AZD1152 HQPA [2]: rapidly and completely converted
Compound: CCN(CCCOc1ccc2c(Nc3cc(CC(=O)Nc4cccc(F)c4)n[nH]3)ncnc2c1)CCOP(=O)(O)O [AZD1152, 2-{ethyl[3-({4-[(5-{2-[(3-fluorophenyl)amino]-2-oxoethyl}-1H-pyrazol-3-yl)amino]quinazolin-7-yl}oxy)propyl]amino}ethyl dihydrogen phosphate]
inhibition of tumour growth [1]: inhibit tumour growth
